The text below walks through data of patent US20200289667A1, “Targeting Macrophages to Modulate Electrical Conduction in the Heart” (The General Hospital Corporation, priority 2016, published 2020).

Common to all, as to format: in vivo, mouse
Series [1] relates to AV block. As to the kind of experiment: Surface ECG of Cd11b^DTR mice with AV block after intravenous drug administration. The note with it: Cd11b^DTR mice with second and third degree AV block; intravenous (atropine 1 mg/kg, epinephrine 2 mg/kg, isoproterenol 20 mg/kg). The protocol:
(§1) Mice were anesthetized as described above and surface ECG was recorded using subcutaneous electrodes connected to the Animal Bio amplifier and PowerLab station (AD Instruments). The ECG channel was filtered between 0.3 and 1000 Hz and analyzed using LabChart Pro software. Atropine (1 mg/kg), epinephrine (2 mg/kg) or isoproterenol (20 mg/kg) were administered intravenously, and changes were examined before and after injection.

Series [2] deals with AV node macrophages. As to the kind of experiment: Flow cytometric quantification of AV node macrophages after depletion. The protocol: (§2) Mice were put into parabiosis using either C57BL/6 and Cx3cr1^GFP/+ or Cd11b^DTR and Cx3cr1^GFP/+ mice as described previously (12). Tamoxifen was given as a solution in corn oil (Sigma) to Cx3cr1^wt/CreER ChR2^fl/fl or Cx3cr1^wt/CreER Cx43^fl/fl mice by intraperitoneal injection. Animals received 5 doses of 2 mg of tamoxifen with a separation of 24 hours between doses. Cx3cr1^wt/CreER ChR2^wt/fl and Cx3cr1^wt/CreER Cx43^fl/fl mice were analyzed 2 and 7 days post-tamoxifen treatment, respectively. Macrophage depletion was achieved by a single intraperitoneal injection of diphtheria toxin (DT, 25 ng/g body weight) in Cd11b^DTR mice (12). C57BL/6 mice injected with DT were used as controls. Clodronate liposomes were kindly provided by Dr. Kory J. Lavine and contained 18 mg of clodronate per mL of liposomes. Depletion studies were performed by intraperitoneal injection of 100 μL/30 g mouse (13).
Peripheral blood for flow cytometric analysis was collected by retro-orbital bleeding using heparinized capillary tubes (BD Diagnostics) and red blood cells were lysed with 1× red blood cell lysis buffer (BioLegend). To determine electrolyte levels, blood was collected by cardiac puncture and electrolytes were measured on serum with EasyLyte PLUS analyzer (Medica). For organ harvest, mice were perfused through the LV with 10 mL of ice-cold PBS. […]
In general terms: Flow cytometry measures light scatter and fluorescence of single cells or particles in a stream.

Series [3] deals with AV node conduction. In words: AV node conduction by ECG telemetry, surface ECG and EP study after macrophage depletion. The protocol: as §2
EP studies were performed under general anaesthesia induced by administering 5% isoflurane driven by an oxygen source into an induction chamber. Anaesthesia was subsequently maintained with 1-2% isoflurane in 95% O2. For EP study, an octapolar catheter (EPR-800) was inserted into the right jugular vein and positioned in the right atrium and ventricle. Programmed electrical stimulation was performed using a standard protocol with 120 ms and 100 ms drive trains and single extrastimuli to measure function of the AV node and the conduction properties of atrial and ventricular tissue. The Wenckebach cycle length was measured by progressively faster atrial pacing rates. Retrograde (VA) conduction cycle length was measured by progressively slower ventricular pacing rates. Sinus node function was determined by measuring the sinus node recovery time (SNRT) following 30 seconds of pacing at three cycle lengths (120, 100 and 80 ms). SNRT was divided by the basic cycle length to adjust for the intrinsic heart rate.
Continuous ambulatory ECG telemetry was performed by implanting an ETA-F10 transmitter during general anaesthesia with isoflurane. The transmitter was implanted in the abdomen and the leads were tunneled subcutaneously to the upper right and lower left chest resulting in a lead II position. Telemetry data was recorded continuously via a receiver placed under the mouse cage. Data analysis was performed using LabChart Pro software.
as §1

Turning to `CNC[C@H](O)c1ccc(O)c(O)c1` [epinephrine], in series [1], the “attenuation of AV block” value is reported as “did not attenuate”.
Same read-out and setting: then `CN1[C@@H]2CC[C@H]1C[C@@H](OC(=O)C(CO)c1ccccc1)C2` (stereo partly drawn) [atropine], with “did not attenuate”; and `CC(C)NCC(O)c1ccc(O)c(O)c1` (stereo not drawn) [isoproterenol], with “did not attenuate”.
As for diphtheria toxin [DT], the “number of AV node macrophages” value in series [2] (C57BL/6 control mice, three days after DT injection) was “did not alter”. In series [2] (Cd11b^DTR mice, single intraperitoneal dose of 25 ng/g body weight), the “time of maximum depletion of AV node macrophages” value is reported as “three”. The “induction of AV block” value in series [3] (C57BL/6 control mice, surface ECG) was “did not induce AV block”; in series [3] (Cx3cr1^GFP/+ mice joined in parabiosis with Cd11b^DTR mice, surface ECG three days after DT) it was “did not induce AV block”. Also, in series [3] (Cd11b^DTR mice, ECG telemetry, after DT injection), the “progression of AV block” value is “progressively evolved into second and third degree AV block”. The “onset of first degree AV block (all mice)” value in series [3] (Cd11b^DTR mice, ECG telemetry, single dose 25 ng/g) is recorded as “one”.
